Measurements published in publication PMC5971337, “Development of an Ultra-High Performance Liquid Chromatography Method for Simultaneous Determination of Six Active Compounds in Fructus aurantii and Rat Plasma and Its Application to a Comparative Pharmacokinetic Study in Rats Administered with Different Doses” (Journal of Analytical Methods in Chemistry, 2018).
Read-outs that look alike come from different tables or passages of the source.

Columns and labels:
[1] = Stability of the analytical solution of FA decoction at environmental temperature; format: physicochemical; conditions: FA decoction 1.7 g/mL
Experimental: The raw herb (200 g) was immersed in distilled water (1 : 8, w/v) for 0.5 h at room temperature and thereafter was boiled for 0.5 h. The filtrate was collected, and the residue was boiled again in distilled water (1 : 6, w/v) for 0.5 h. The filtrates were mixed together, filtered through a 0.45 µm porous filtration membrane, then farther concentrated in the rotary evaporator to a final concentration equivalent to 1.7 g/mL FA, and stored at −20°C until analyzed. In the experiment, FA decoction (100 µL) was precisely measured, 900 µL methanol was added, then ultrasound was done for 5 min, and it was centrifuged at 15000 rpm (4°C) for 10 min; the supernatant liquor (20 µL) was shifted to a 1.5 mL EP tube, methanol-water (780 µL) was added, and ultrasound was performed, and it was centrifuged at 15000 rpm (4°C) for 10 min again. Finally, 5 µL of the supernatant liquor was injected into the apparatus for detection.
The stability of the analytical solution at environmental temperature was studied by detecting sample solution at 0, 2, 4, 8, 12, and 24 h. The RSD values of peak areas were taken for assessment.

[2] = Stability of QC samples in rat plasma (short-term, freeze-thaw, long-term); format: in vitro ADME; conditions: for Short-term stability, Mean ± SD: room temperature for 4 h; for Freeze-thaw stability, Mean ± SD: three freeze (−20°C) and thaw cycles; for Long-term stability, Mean ± SD: −20°C for 20 days
Experimental: (§1) Standard stock solutions were prepared by dissolving reference standards in methanol to yield concentrations of 198 µg/mL for meranzin hydrate, 128 µg/mL for naringenin, 273 µg/mL for hesperetin, and 4.56 µg/mL for SMZ. All solutions were stored at 4°C. QC samples were prepared at three concentration levels containing meranzin hydrate (6.5, 206, 3300 ng/mL), naringenin (13.9, 222, 3555 ng/mL), and hesperetin (3.7, 29.5, 236 ng/mL). Plasmas (100 µL) were spiked with β-glucuronidase (5 µL) and acetic acid buffer solution (10 µL), subsequently vortexed for 10 seconds, and incubated for 4 h at 37°C. Then, SMZ (50 µL) and methanol (135 µL) were added, ultrasound was done for 10 min, and centrifugation at 12000 rpm (4°C) for 10 min was performed. The supernatant (50 µL) was transferred, distilled water (50 µL) was added, then ultrasound and centrifugation again. At last, the supernatant of 5 µL was injected into UPLC.
(5) Stability. QC plasma samples of each concentration at low, medium, and high levels were detected. The freeze and thaw stability were investigated after three freeze (−20°C) and thaw (room temperature) cycles on consecutive days. Long-term stability was studied by storing QC samples at −20°C for 20 days. Short-term stability was assessed by analyzing QC samples kept at room temperature for 4 h.

[3] = Pharmacokinetic study in rats after oral administration of FA decoction; format: in vivo, Sprague-Dawley rats; conditions: for Cmax / AUC(0-t) / Tmax / MRT last / half-life: male, Sprague-Dawley, rat plasma; for AUC(0-t): last dose day 8, plasma treated with β-glucuronidase; for MRT last: read-out: MRT(0–t); for half-life: read-out: t 1/2z (converted); for AUC(0–t) elevation, 30 g/kg compared with the 15 g/kg group / C max elevation, 30 g/kg compared with the 15 g/kg group: rat, oral FA decoction; for detection in rat plasma: even after orally administering 30 g/kg FA decoction
Experimental: 16 male Sprague-Dawley (SD) rats weighing 200 ± 20 g were from experimental animal center of Central South University and fostered in an environmentally controlled room (temperature: 22–26°C, humidity: 40–60%, and 12 h dark-light cycle) for 1 week before the experiment. All experimental procedures were implemented strictly according to the guidelines of the Animal Care and Use Committee, Central South University, China. This research was approved by the Animal Ethics Committee of Central South University. Rats were randomly divided into 2 groups (n=8): low-dose group (15 g/kg FA decoction) and high-dose group (30 g/kg FA decoction). The two groups were given by gavage twice a day for 7 days in succession. At the 7th day of medication, the rats were prohibited feeding for about 12 hours without restriction of water. On day 8, the rats were orally administered for the last time at 8 am, and then plasma samples (0.5 mL) were collected from the caudal vein at 5, 10, 20, 30, 60, 90, 240, 360, 480, and 600 min into heparinized vacuum tubes, followed by centrifugation at 3500 rpm (4°C) for 10 min. Then, the plasmas were obtained and immediately stored at −20°C until analysis. During the experiment, the rats were injected intraperitoneally with physiological saline for maintaining fluid balance.
as §1
The database was set up with the SPSS 17.0 software package from SPSS Inc., Chicago, Illinois (US). Differences between the two groups were analyzed by one-way analysis of variance. A two-tailed P value of <0.05 was considered statistically significant. The DAS 3.2.8 pharmacokinetic program (Chinese Pharmacological Society) was used to process pharmacokinetic parameters.
The validated method was applied to determine the plasma concentrations of meranzin hydrate, naringenin, and hesperetin in rats after oral administration of FA decoction at a dose of 15 g/kg and 30 g/kg body weight. The mean plasma concentration-time profiles of meranzin hydrate, naringenin, and hesperetin are shown in Figure 4, and the estimated pharmacokinetic parameters are illustrated in Table 5. According to DAS software, the optimal metabolism process of the 3 components in rats could be depicted as a two-compartment pharmacokinetic model.

[4] = high level (spiked 3300.0 / 3555.0 / 236.0 ng/mL)
[5] = low level (spiked 6.5 / 13.9 / 3.7 ng/mL)
[6] = medium level (spiked 206.0 / 222.0 / 29.5 ng/mL)
[7] = oral FA decoction 15 g/kg twice a day for 7 days, n=8
[8] = oral FA decoction 30 g/kg twice a day for 7 days, n=8

| Structure (SMILES) | Stability in FA decoction, Content ([1]; 0h) [mg/mL] | Stability in FA decoction, Content ([1]; 2h) [mg/mL] | Stability in FA decoction, Content ([1]; 4h) [mg/mL] | Stability in FA decoction, Content ([1]; 8h) [mg/mL] | Stability in FA decoction, Content ([1]; 12h) [mg/mL] | Stability in FA decoction, Content ([1]; 24h) [mg/mL] | Short-term stability, Mean ± SD [2, 4] [ng/mL] | AUC(0-t) [3, 7] [ng·h/mL] | Cmax ([3]; oral FA decoction 15 g/kg, n=8) [ng/mL] | Tmax ([3]; oral FA decoction 15 g/kg, n=8) [h] | MRT last ([3]; oral FA decoction 15 g/kg, n=8) [h] | half-life ([3]; oral FA decoction 15 g/kg, n=8) [h] | AUC(0-t) [3, 8] [ng·h/mL] | Cmax ([3]; oral FA decoction 30 g/kg, n=8) [ng/mL] | Tmax ([3]; oral FA decoction 30 g/kg, n=8) [h] | MRT last ([3]; oral FA decoction 30 g/kg, n=8) [h] | half-life ([3]; oral FA decoction 30 g/kg, n=8) [h] | AUC(0–t) elevation, 30 g/kg compared with the 15 g/kg group [3] [fold] | C max elevation, 30 g/kg compared with the 15 g/kg group [3] [fold] | detection in rat plasma [3] | further results |
| --- | --- | --- | --- | --- | --- | --- | --- | --- | --- | --- | --- | --- | --- | --- | --- | --- | --- | --- | --- | --- | --- |
| COc1ccc([C@@H]2CC(=O)c3c(O)cc(O)cc3O2)cc1O [Hesperetin, hesperetin] | 0.19 | 0.19 | 0.18 | 0.18 | 0.19 | 0.18 | 234.18 ± 22.13 | 508 ± 88 | 83.9 ± 14.2 | 1 ± 0.38 | 4.27 ± 0.27 | 8.05 ± 3.1 | 955 ± 227 | 174 ± 39 | 1.31 ± 0.26 | 4.15 ± 0.35 | 6.56 ± 3.35 | 1.88 | 2.08 | – | Freeze-thaw stability, Mean ± SD [2, 4]: 235.03 ± 19.71 ng/mL; Long-term stability, Mean ± SD [2, 4]: 235.66 ± 14.53 ng/mL; Short-term stability, Mean ± SD [2, 5]: 3.63 ± 0.87 ng/mL; Freeze-thaw stability, Mean ± SD [2, 5]: 3.52 ± 0.43 ng/mL; Long-term stability, Mean ± SD [2, 5]: 3.67 ± 0.57 ng/mL; Short-term stability, Mean ± SD [2, 6]: 27.88 ± 3.50 ng/mL; Freeze-thaw stability, Mean ± SD [2, 6]: 28.35 ± 4.03 ng/mL; Long-term stability, Mean ± SD [2, 6]: 28.28 ± 1.65 ng/mL; Cmax ([3]; oral, 15 g/kg group): 83.9 ± 14.2 ng/mL; Cmax ([3]; oral, 30 g/kg group): 174 ± 39 ng/mL |
| C[C@@H]1O[C@@H](O[C@H]2[C@H](Oc3cc(O)c4c(c3)O[C@H](c3ccc(O)cc3)CC4=O)O[C@H](CO)[C@@H](O)[C@@H]2O)[C@H](O)[C@H](O)[C@H]1O [naringin] | 25.24 | 25.35 | 24.92 | 25.45 | 24.98 | 25.15 | – | – | – | – | – | – | – | – | – | – | – | – | – | could not been detected | – |
| COc1ccc([C@@H]2CC(=O)c3c(O)cc(O[C@@H]4O[C@H](CO)[C@@H](O)[C@H](O)[C@H]4O[C@@H]4O[C@@H](C)[C@H](O)[C@@H](O)[C@H]4O)cc3O2)cc1O [neohesperidin] | 14.33 | 14.28 | 13.98 | 14.40 | 14.11 | 14.08 | – | – | – | – | – | – | – | – | – | – | – | – | – | could not been detected | – |

Further lines, with some results ahead:

| Stability in FA decoction, Content ([1]; 0h) [mg/mL] | Stability in FA decoction, Content ([1]; 2h) [mg/mL] | Stability in FA decoction, Content ([1]; 4h) [mg/mL] | Stability in FA decoction, Content ([1]; 8h) [mg/mL] | Stability in FA decoction, Content ([1]; 12h) [mg/mL] | Stability in FA decoction, Content ([1]; 24h) [mg/mL] | Short-term stability, Mean ± SD [2, 4] [ng/mL] | AUC(0-t) [3, 7] [ng·h/mL] | Cmax ([3]; oral FA decoction 15 g/kg, n=8) [ng/mL] | Tmax ([3]; oral FA decoction 15 g/kg, n=8) [h] | MRT last ([3]; oral FA decoction 15 g/kg, n=8) [h] | half-life ([3]; oral FA decoction 15 g/kg, n=8) [h] | AUC(0-t) [3, 8] [ng·h/mL] | Cmax ([3]; oral FA decoction 30 g/kg, n=8) [ng/mL] | Tmax ([3]; oral FA decoction 30 g/kg, n=8) [h] | MRT last ([3]; oral FA decoction 30 g/kg, n=8) [h] | half-life ([3]; oral FA decoction 30 g/kg, n=8) [h] | AUC(0–t) elevation, 30 g/kg compared with the 15 g/kg group [3] [fold] | C max elevation, 30 g/kg compared with the 15 g/kg group [3] [fold] | detection in rat plasma [3] | Structure (SMILES) | further results |
| --- | --- | --- | --- | --- | --- | --- | --- | --- | --- | --- | --- | --- | --- | --- | --- | --- | --- | --- | --- | --- | --- |
| 0.34 | 0.36 | 0.33 | 0.34 | 0.35 | 0.34 | – | 1530 ± 252 | 505 ± 64.3 | 1 ± 0.27 | 2.77 ± 0.34 | 2.67 ± 0.81 | 7370 ± 887 | 1830 ± 221 | 1.25 ± 0.27 | 3.21 ± 0.22 | 2.23 ± 0.59 | 4.8 | 3.62 | – | COc1ccc2ccc(=O)oc2c1C[C@@H](O)C(C)(C)O [Meranzin hydrate, meranzin hydrate] | – |
| 0.27 | 0.26 | 0.26 | 0.26 | 0.26 | 0.25 | 3549.93 ± 455.39 | 3660 ± 861 | 694 ± 208 | 1.13 ± 0.35 | 4.06 ± 0.33 | 8.59 ± 9.25 | 11200 ± 1410 | 2580 ± 388 | 0.81 ± 0.26 | 3.89 ± 0.21 | 5.67 ± 2.9 | 3.05 | 3.72 | – | O=C1C[C@@H](c2ccc(O)cc2)Oc2cc(O)cc(O)c21 [Naringenin, naringenin] | Freeze-thaw stability, Mean ± SD [2, 4]: 3552.68 ± 409.74 ng/mL; Long-term stability, Mean ± SD [2, 4]: 3550.10 ± 450.62 ng/mL; Short-term stability, Mean ± SD [2, 5]: 13.03 ± 2.28 ng/mL; Freeze-thaw stability, Mean ± SD [2, 5]: 13.44 ± 4.79 ng/mL; Long-term stability, Mean ± SD [2, 5]: 13.32 ± 5.05 ng/mL; Short-term stability, Mean ± SD [2, 6]: 217.05 ± 22.66 ng/mL; Freeze-thaw stability, Mean ± SD [2, 6]: 219.51 ± 35.50 ng/mL; Long-term stability, Mean ± SD [2, 6]: 220.06 ± 34.22 ng/mL |
| 4.95 | 4.83 | 4.71 | 5.02 | 4.87 | 4.82 | – | – | – | – | – | – | – | – | – | – | – | – | – | could not been detected | COc1ccc([C@@H]2CC(=O)c3c(O)cc(O[C@@H]4O[C@H](CO[C@@H]5O[C@@H](C)[C@H](O)[C@@H](O)[C@H]5O)[C@@H](O)[C@H](O)[C@H]4O)cc3O2)cc1O [hesperidin] | – |
